Data set [1] deals with T1, Protease (Human immunodeficiency virus 1, UniProt Q9YQ12). In words: Inhibition of HIV1 protease.
In data set [2] the target is T1, Protease. The data set can be described thus: Inhibition of South African HIV1 subtype C protease expressed in Escherichia coli BL21S4 (DE3)pLysS cells using Lys-Ala-Arg-Val-Nle-p-nitro-Phe-Glu-Ala-Nle-NH2 as substrate by spectrophotometry.
Data set [3] in a line: Ratio of compound IC50 to lopinavir IC50 for human MT4 cells after 5 days by XTT assay. It is filed as ADME, cell-based. The conditions noted are these: read-out: Ratio IC50.

A value given as a limit tells only on which side of the number the result lay.

T1 sequence (Q9YQ12 whole entry): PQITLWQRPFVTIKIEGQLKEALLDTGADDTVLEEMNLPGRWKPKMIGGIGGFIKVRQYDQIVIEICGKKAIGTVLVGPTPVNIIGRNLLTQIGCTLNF

`CC(C)(C)OC(=O)N[C@@H](Cc1ccccc1)[C@@H](O)CC(C/C=C/c1ccccc1)C(=O)N[C@H](C(=O)NC[C@H]1OC(O)[C@H](O)[C@H]1O)C1CCCCC1` (stereo partly specified): the IC50 on Protease [1] is 0.00017 µM.
With `CC(C)[C@H](NC(=O)C[C@@H](NCc1ccccc1)C1O[C@@H]2OC(C)(C)O[C@@H]2[C@H]1OCc1ccccc1)C(=O)N[C@@H](C)C(=O)O` (stereo partly specified), inhibition against Protease [2] was half-maximal at 1.09 µM (IC50). For the same compound, in data set [3], the selectivity ratio at 120 h was > 5000.
The compound `CC(C)[C@H](NC(=O)C[C@H](NCc1ccccc1)C1O[C@@H]2OC(C)(C)O[C@@H]2[C@H]1OCc1ccccc1)C(=O)N[C@@H](C)C(=O)O` (stereo partly specified) gave an IC50 against Protease [2] of 1.29 µM. Further, in data set [3], the selectivity ratio at 120 h is > 5000.
The compound `CC(C)[C@H](NC(=O)C[C@@H](N)C1O[C@@H]2OC(C)(C)O[C@@H]2[C@H]1O)C(=O)N[C@@H](C)C(=O)O` (stereo partly specified) came in with an IC50 against Protease [2] of 0.95 µM. For the same compound, the selectivity ratio at 120 h in data set [3] was > 5000.
In turn, `CC(C)[C@H](NC(=O)C[C@H](N)C1O[C@@H]2OC(C)(C)O[C@@H]2[C@H]1O)C(=O)N[C@@H](C)C(=O)O` (stereo partly specified) returned an IC50 at Protease [2] of 1.01 µM. Besides, the selectivity ratio at 120 h in data set [3] was > 5000.
For `CC(C)[C@H](NC(=O)[C@H](C)NC(=O)C[C@@H](NCc1ccccc1)C1O[C@@H]2OC(C)(C)O[C@@H]2[C@H]1OCc1ccccc1)C(=O)O` (stereo partly specified), the IC50 at Protease [2] was 1.02 µM. In addition, the selectivity ratio at 120 h in data set [3] was > 5000.
As to `CC(C)[C@H](NC(=O)[C@H](C)NC(=O)C[C@H](NCc1ccccc1)C1O[C@@H]2OC(C)(C)O[C@@H]2[C@H]1OCc1ccccc1)C(=O)O` (stereo partly specified), inhibition at Protease [2] was half-maximal at 0.76 µM (IC50). In data set [3], the selectivity ratio at 120 h was > 5000.
On to `CC(C)[C@H](NC(=O)[C@H](C)NC(=O)C[C@@H](N)C1O[C@@H]2OC(C)(C)O[C@@H]2[C@H]1O)C(=O)O` (stereo partly specified), for which the 50% inhibitory concentration (IC50) on Protease [2] is > 10 µM. For the same compound, the selectivity ratio at 120 h in data set [3] is > 5000.
Regarding `CC(C)[C@H](NC(=O)[C@H](C)NC(=O)C[C@H](N)C1O[C@@H]2OC(C)(C)O[C@@H]2[C@H]1O)C(=O)O` (stereo partly specified), the IC50 at Protease [2] is > 10 µM. The selectivity ratio at 120 h in data set [3] was > 5000.
In the case of `CC(C)[C@H](NC(=O)[C@H](C)NC(=O)C[C@H](NCc1ccccc1)C1O[C@@H]2OC(C)(C)O[C@@H]2[C@H]1O)C(=O)O` (stereo partly specified), the IC50 against Protease [2] worked out at 0.71 µM. Besides, the selectivity ratio at 120 h in data set [3] is > 5000.
For `O=C(N[C@@H]1Cc2ccccc2[C@@H]1O)C(OCc1ccccc1)[C@H](O)[C@@H](O)C(OCc1ccccc1)C(=O)N[C@@H]1Cc2ccccc2[C@@H]1O` (stereo partly specified), the Ki at Protease [1] amounted to 0.00122 µM.
As to `COC(=O)[C@H](CC(C)C)NC(=O)[C@H](Cc1ccccc1)NC(=O)[C@@H]1O[C@@H](C(=O)N[C@@H](Cc2ccccc2)C(C)N[C@@H](CC(C)C)C(=O)OC)[C@@H](O)[C@@H]1O` (stereo partly specified), the IC50 at Protease [1] is > 2000 µM.

For the origin of these results see ChEMBL document CHEMBL2034816, “Synthesis and molecular modelling studies of novel carbapeptide analogs for inhibition of HIV-1 protease” (Eur J Med Chem, 2012).
